Source: PMC4938916, “Effect of mutations to amino acid A301 and F361 in thermostability and catalytic activity of the β-galactosidase from Bacillus subtilis VTCC-DVN-12-01” (BMC Biochemistry, 2016)

Experiments:
Assay in all cases: o-nitrophenol release at […] nm, Lineweaver-Burk
Format in all cases: biochemical
Conditions in all cases: 100 mM buffer Z (1 mM MgSO4, 50 mM 2-mercaptoethanol), pH 7.0, 55 °C; apparent
[1] = target: T1, β-galactosidase LacA (LacA-WT) (Bacillus subtilis, UniProt O07012, A286V, form not given)
T1 construct: gene ganA; full lacA gene (2061 bp) in pET22b(+), C-terminal 6xHis tag kept, E. coli JM109(DE3), Ni ProBond purified, 70 kDa, GH42
T1 sequence (O07012 whole entry A286V, form open): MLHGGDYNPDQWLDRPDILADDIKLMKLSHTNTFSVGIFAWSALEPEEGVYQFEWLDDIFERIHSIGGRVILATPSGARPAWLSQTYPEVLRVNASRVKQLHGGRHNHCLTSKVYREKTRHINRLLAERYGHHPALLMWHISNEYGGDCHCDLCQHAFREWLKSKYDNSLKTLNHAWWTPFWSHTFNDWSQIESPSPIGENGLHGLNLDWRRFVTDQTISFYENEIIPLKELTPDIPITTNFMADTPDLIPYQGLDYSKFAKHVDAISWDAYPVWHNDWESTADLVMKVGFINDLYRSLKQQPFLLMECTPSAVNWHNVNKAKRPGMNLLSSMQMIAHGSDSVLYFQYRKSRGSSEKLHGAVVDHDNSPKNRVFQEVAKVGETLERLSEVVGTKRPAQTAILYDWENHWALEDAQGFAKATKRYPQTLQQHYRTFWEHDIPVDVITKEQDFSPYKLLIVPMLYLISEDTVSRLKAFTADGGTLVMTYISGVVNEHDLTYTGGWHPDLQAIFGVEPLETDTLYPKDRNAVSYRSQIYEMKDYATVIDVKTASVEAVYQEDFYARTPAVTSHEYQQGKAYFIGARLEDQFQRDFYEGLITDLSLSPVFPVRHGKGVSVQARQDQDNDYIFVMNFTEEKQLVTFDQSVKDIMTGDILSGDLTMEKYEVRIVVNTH

[2] = target: T2, β-galactosidase LacA (LacA-WT) (Bacillus subtilis, UniProt O07012, F346Y, form not given)
T2 construct: gene ganA; full lacA gene (2061 bp) in pET22b(+), C-terminal 6xHis tag kept, E. coli JM109(DE3), Ni ProBond purified, 70 kDa, GH42
T2 sequence (O07012 whole entry F346Y, form open): as the sequence (O07012 whole entry A286V, form open) above, with V286A, F346Y counted along it

[3] = target: T3, β-galactosidase LacA (LacA-WT) (Bacillus subtilis, UniProt O07012)
T3 construct: gene ganA; full lacA gene (2061 bp) in pET22b(+), C-terminal 6xHis tag kept, E. coli JM109(DE3), Ni ProBond purified, 70 kDa, GH42
T3 sequence (O07012 whole entry): as the sequence (O07012 whole entry A286V, form open) above, with V286A counted along it

Question: With `O=[N+]([O-])c1ccccc1O[C@@H]1O[C@H](CO)[C@H](O)[C@H](O)[C@H]1O` [oNPG, Ortho-nitrophenyl-β-D-galactopyranoside] as the molecule, how does the Km [1] read?
Answer: Its Km is 5.57 ± 0.56 mM.

Question: What about the Km [2] of the same molecule?
Answer: The Km was 8.02 ± 0.27 mM.

Question: What about the Km [3] of the same molecule?
Answer: The Km was 9.28 ± 0.72 mM.
